Like-named read-outs stand apart in the source and are kept apart here.

The test concerns human umbilical vein endothelial cells (HUVEC). The experiment in a line: HUVEC proliferation assay. It counts as cell-based. As to conditions: for inhibition at 0.01 µM: 10 nM; for inhibition at 0.05 µM: 50 nM; for inhibition at 0.001 µM: 1 nM. As to the method:
HUVEC Proliferation Assay
This assay determines the ability of a test compound to inhibit the growth factor-stimulated proliferation of human umbilical vein endothelial cells (“HUVEC”). HUVEC cells (passage 3-4, Clonetics, Corp.) were thawed into EGM2 culture medium (Clonetics Corp) in T75 flasks. Fresh EGM2 medium was added to the flasks 24 hours later. Four or five days later, cells were exposed to another culture medium (F12K medium supplemented with 10% fetal bovine serum (FBS), 60 μg/ml endothelial cell growth supplement (ECGS), and 0.1 mg/ml heparin). Exponentially-growing HUVEC cells were used in experiments thereafter. Ten to twelve thousand HUVEC cells were plated in 96-well dishes in 100 μl of rich, culture medium (described above). The cells were allowed to attach for 24 hours in this medium. The medium was then removed by aspiration and 105 μl of starvation media (F12K+1% FBS) was added to each well. After 24 hours, 15 μl of test agent dissolved in 1% DMSO in starvation medium or this vehicle alone was added into each treatment well; the final DMSO concentration was 0.1%. One hour later, 30 μl of VEGF (30 ng/ml) in starvation media was added to all wells except those containing untreated controls; the final VEGF concentration was 6 ng/ml. Cellular proliferation was quantified 72 hours later by MTT dye reduction, at which time cells were exposed for 4 hours MTT (Promega Corp.). Dye reduction was stopped by addition of a stop solution (Promega Corp.) and absorbance at 595 λ was determined on a 96-well spectrophotometer plate reader.
IC50 values were calculated by curve-fitting the response of A^595 to various concentrations of the test agent; typically, seven concentrations separated by 0.5 log were employed, with triplicate wells at each concentration. For screening compound library plates, one or two concentrations (one well per concentration) were employed, and the % inhibition was calculated by the following formula:
% inhibition=(control−test) divided by (control−starvation) […]
control=A^595 when VEGF is present without test agent test=A^595 when VEGF is present with test agent starvation=A^595 when VEGF and test agent are both absent.

[1] abbreviates: Homo sapiens, HUVEC, crude combinatorial urea library, read-out: Inhibition of HUVEC Proliferation % inhibition @ 10 nM.
Where [2] appears, read: Homo sapiens, HUVEC, crude combinatorial urea library, read-out: Inhibition of HUVEC Proliferation % inhibition @ 50 nM.
[3] abbreviates: Homo sapiens, HUVEC, table following Table II (untitled), crude combinatorial library.
Where [4] appears, read: Homo sapiens, HUVEC, table following Table II (untitled), crude combinatorial library, read-out: % inhibition @ 10 nM.
Setting [5] is: Homo sapiens, HUVEC, Inhibition of HUVEC Proliferation, crude combinatorial urea library, read-out: Inhibition @ 50 nM.
[6] abbreviates: Homo sapiens, HUVEC, Table I screening results, 150 nM, crude combinatorial amide library.
Setting [7] is: Homo sapiens, HUVEC, Table II screening results, crude combinatorial amide library.
Where [8] appears, read: Homo sapiens, HUVEC, Table II screening results, crude combinatorial amide library, read-out: % inhibition @ 10 nM.
[9] abbreviates: Homo sapiens, HUVEC, Inhibition of HUVEC Proliferation, crude combinatorial urea library, read-out: % inhibition @ 50 nM.

As to `COc1cccc(C(=O)Nc2cccc(-c3csc(-c4sc(NC(=O)NCCC5CCCN5C)nc4N)n3)c2)c1` (centres unmarked), the inhibition at 0.01 µM under setting [1] is 39%. Also, under setting [2], the inhibition at 0.05 µM was 0%. For `COc1cc(Nc2nc(N)c(-c3nc(-c4cc(NC(=O)C(=O)Cc5ccccc5)ccc4C)no3)s2)cc(OC)c1OC`, the inhibition at 0.001 µM under setting [3] worked out at 23%. In addition, the inhibition at 0.01 µM under setting [4] was 21%.

By IC50 is commonly meant the concentration needed to halve the response being measured. The compound `COc1cccc(C(=O)Nc2cc(-c3csc(-c4sc(NC(=O)NCc5ccccc5)nc4N)n3)c(F)cc2F)c1` [O(13), N-{5-[4′-Amino-2′-(3-benzyl-ureido)-[2,5′]bithiazolyl-4-yl]-2,4-difluoro-phenyl}-3-methoxy-benzamide] displayed a half-maximal inhibitory concentration (IC50) (Homo sapiens, HUVEC, Table 3) of 140 nM. For the compound `COc1cc(Nc2nc(N)c(-c3nc(-c4cc(NC(=O)C5C(C=C(C)C)C5(C)C)ccc4C)no3)s2)cc(OC)c1OC` (centres unmarked), the inhibition at 0.001 µM under setting [3] was 8%. Besides, the inhibition at 0.01 µM under setting [4] was -11%. Regarding `CCC(O)CNC(=O)Nc1nc(N)c(-c2nc(-c3cc(NC(=O)c4cccc(OC)c4)c(F)cc3F)no2)s1` (centres unmarked), the inhibition at 0.05 µM under setting [5] came to 93%. Still for that read-out and setting: then `COc1cccc(C(=O)Nc2cc(-c3noc(-c4sc(NC(=O)NCC5CCC=CO5)nc4N)n3)c(F)cc2F)c1` (centres unmarked), with 93%. As for `COc1cccc(C(=O)Nc2cccc(-c3csc(-c4sc(NC(=O)NCCC(N)=O)nc4N)n3)c2)c1`, the inhibition at 0.01 µM under setting [1] came to 30%. Moreover, the inhibition at 0.05 µM under setting [2] stood at 1%.

Regarding `COc1cc(Nc2nc(N)c(-c3nc(-c4cccc(NC(=O)c5ccc6ncccc6c5)c4)cs3)s2)cc(OC)c1OC`, under setting [6], the inhibition at 0.15 µM worked out at 26%.

As for `CNC(=O)Nc1nc(N)c(-c2nc(-c3cccc(NC(=O)C4CNC(=O)N4)c3)cs2)s1` (centres unmarked), the inhibition at 0.001 µM under setting [7] stood at 11%. Also, the inhibition at 0.01 µM under setting [8] was determined as 18%. In the case of `COc1cc(Nc2nc(N)c(-c3nc(-c4cccc(NC(=O)/C=C/c5ccc(Cl)cc5)c4)cs3)s2)cc(OC)c1OC`, the inhibition at 0.15 µM under setting [6] stood at 40%. As to `COc1cc(Nc2nc(N)c(-c3nc(-c4cccc(NC(=O)/C=C/c5ccc6c(c5)OCO6)c4)cs3)s2)cc(OC)c1OC`, the “% inhibition @ 150 nM” value (Table I screening results, 150 nM, crude combinatorial amide library) amounted to 0%. For the compound `COc1cc(Nc2nc(N)c(-c3nc(-c4cccc(NC(=O)C5CCc6ccccc6C5)c4)cs3)s2)cc(OC)c1OC` (centres unmarked), the inhibition at 0.15 µM under setting [6] turned out to be 11%. Consider `COc1cccc(C(=O)Nc2cccc(-c3csc(-c4sc(NC(=O)NCCN5CCCCC5)nc4N)n3)c2)c1`, for which, under setting [1], the inhibition at 0.01 µM was found to be 22%. Besides, the inhibition at 0.05 µM under setting [2] was found to be 25%.

For `COc1cc(Nc2nc(N)c(-c3nc(-c4cccc(NC(=O)CCC5CCCC5)c4)cs3)s2)cc(OC)c1OC`, under setting [6], the inhibition at 0.15 µM turned out to be 85%. As for `CNC(=O)Nc1nc(N)c(-c2nc(-c3cccc(NC(=O)Cc4c(F)cccc4F)c3)cs2)s1`, the inhibition at 0.001 µM under setting [7] is -3%. The inhibition at 0.01 µM under setting [8] was -2%.

For the compound `COc1cccc(C(=O)Nc2cc(-c3noc(-c4sc(NC(=O)NCCCN5CCOCC5)nc4N)n3)c(F)cc2F)c1`, the inhibition at 0.05 µM under setting [5] was 80%. For `CCN1CCCC1CNC(=O)Nc1nc(N)c(-c2nc(-c3cc(NC(=O)c4cccc(OC)c4)c(F)cc3F)cs2)s1` (centres unmarked), the inhibition at 0.05 µM under setting [9] is 85%.

For the compound `C=CCC(=O)Nc1ccc(C)c(-c2noc(-c3sc(Nc4cc(OC)c(OC)c(OC)c4)nc3N)n2)c1`, under setting [3], the inhibition at 0.001 µM was 35%. The inhibition at 0.01 µM under setting [4] was determined as 72%. Consider `COc1cccc(C(=O)Nc2cccc(-c3csc(-c4sc(NC(=O)NCS(=O)(=O)O)nc4N)n3)c2)c1`, for which the inhibition at 0.01 µM under setting [1] is -8%. The inhibition at 0.05 µM under setting [2] was found to be 8%. For `COc1cc(Nc2nc(N)c(-c3nc(-c4cc(NC(=O)C(C)OC=C(C)C)ccc4C)no3)s2)cc(OC)c1OC` (centres unmarked), the inhibition at 0.001 µM under setting [3] was -21%. Moreover, the inhibition at 0.01 µM under setting [4] is 11%.

Consider `COc1cccc(C(=O)Nc2cccc(-c3csc(-c4sc(NC(=O)NCc5ccccn5)nc4N)n3)c2)c1`, for which, under setting [1], the inhibition at 0.01 µM is -5%. In addition, the inhibition at 0.05 µM under setting [2] was 103%.

Take `CNC(=O)Nc1nc(N)c(-c2nc(-c3cccc(NC(=O)c4ccccc4C(C)C)c3)cs2)s1`: the inhibition at 0.001 µM under setting [7] was -9%. In addition, under setting [8], the inhibition at 0.01 µM worked out at 26%.

Turning to `COc1cccc(C(=O)Nc2cc(-c3csc(-c4sc(NC(=O)NCCc5ccc(S(N)(=O)=O)cc5)nc4N)n3)c(F)cc2F)c1`, under setting [9], the inhibition at 0.05 µM amounted to 25%. As for `COc1cc(Nc2nc(N)c(-c3nc(-c4cccc(NC(=O)CCc5ccc(C)cc5)c4)cs3)s2)cc(OC)c1OC`, the inhibition at 0.15 µM under setting [6] was found to be 25%.

For the compound `CCC(C(=O)Nc1cccc(-c2csc(-c3sc(Nc4cc(OC)c(OC)c(OC)c4)nc3N)n2)c1)c1ccccc1` (centres unmarked), the inhibition at 0.15 µM under setting [6] is 6%. Consider `COc1cccc(C(=O)Nc2cccc(-c3csc(-c4sc(NC(=O)NCCCN(C)C)nc4N)n3)c2)c1`, for which the inhibition at 0.01 µM under setting [1] is -8%. For the same compound, under setting [2], the inhibition at 0.05 µM came out at 15%. `COc1cc(Nc2nc(N)c(-c3nc(-c4cccc(NC(=O)Cc5ccc(Cl)cc5)c4)cs3)s2)cc(OC)c1OC`: the inhibition at 0.15 µM under setting [6] was -7%. Turning to `COc1cccc(C(=O)Nc2cc(-c3csc(-c4sc(NC(=O)NCC(=N)N)nc4N)n3)c(F)cc2F)c1`, the inhibition at 0.05 µM under setting [9] was determined as 17%. Take `COc1cccc(C(=O)Nc2cc(-c3noc(-c4sc(NC(=O)NCCN5CCCC5)nc4N)n3)c(F)cc2F)c1`: under setting [5], the inhibition at 0.05 µM was 79%. Same read-out and setting: with `COc1cccc(C(=O)Nc2cc(-c3noc(-c4sc(NC(=O)NCCS(=O)(=O)O)nc4N)n3)c(F)cc2F)c1` the figure was 88%. Take `COc1cc(Nc2nc(N)c(-c3nc(-c4cc(NC(=O)c5ccc(C(C)=O)s5)ccc4C)no3)s2)cc(OC)c1OC`: the inhibition at 0.001 µM under setting [3] turned out to be 35%. Besides, under setting [4], the inhibition at 0.01 µM was 93%. In the case of `COc1cccc(C(=O)Nc2cccc(-c3csc(-c4sc(NC(=O)NCCCn5ccnc5)nc4N)n3)c2)c1`, the inhibition at 0.01 µM under setting [1] is 9%. The inhibition at 0.05 µM under setting [2] turned out to be 39%. For `COc1cccc(C(=O)Nc2cccc(-c3csc(-c4sc(NC(=O)NCCCN5CCCC5=O)nc4N)n3)c2)c1` the same measures were 28% and 123%. As to `CCCN(CCC)CC(=O)Nc1ccc(C)c(-c2noc(-c3sc(Nc4cc(OC)c(OC)c(OC)c4)nc3N)n2)c1`, under setting [3], the inhibition at 0.001 µM is 6%. Also, the inhibition at 0.01 µM under setting [4] worked out at 0%.

In the case of `COc1cccc(C(=O)Nc2cc(-c3noc(-c4sc(NC(=O)NCC(C)(C)CN(C)C)nc4N)n3)c(F)cc2F)c1`, under setting [5], the inhibition at 0.05 µM worked out at 77%. Consider `C=CCCC(=O)Nc1cccc(-c2csc(-c3sc(Nc4cc(OC)c(OC)c(OC)c4)nc3N)n2)c1`, for which, under setting [6], the inhibition at 0.15 µM came to 5%.

`CCC(CO)NC(=O)Nc1nc(N)c(-c2nc(-c3cccc(NC(=O)c4cccc(OC)c4)c3)cs2)s1` (centres unmarked): the inhibition at 0.01 µM under setting [1] is 13%. Besides, the inhibition at 0.05 µM under setting [2] amounted to 62%. As for `COc1cc(Nc2nc(N)c(-c3nc(-c4cccc(NC(=O)C5C=CCC=C5C)c4)cs3)s2)cc(OC)c1OC` (centres unmarked), the inhibition at 0.15 µM under setting [6] turned out to be 14%. Take `COc1cccc(C(=O)Nc2cccc(-c3csc(-c4sc(NC(=O)NCCCC(=O)O)nc4N)n3)c2)c1`: the inhibition at 0.01 µM under setting [1] turned out to be 23%. Moreover, the inhibition at 0.05 µM under setting [2] came to 24%. The like results for `CCCCN(CCCC)CCCNC(=O)Nc1nc(N)c(-c2nc(-c3cccc(NC(=O)c4cccc(OC)c4)c3)cs2)s1` were, in that order, -5% and 62%.

With `COc1cccc(C(=O)Nc2cccc(-c3csc(-c4sc(NC(=O)NCCCN5CCCCC5C)nc4N)n3)c2)c1` (centres unmarked), under setting [1], the inhibition at 0.01 µM is -18%. In addition, the inhibition at 0.05 µM under setting [2] stood at 55%. On to `COc1cccc(C(=O)Nc2cc(-c3noc(-c4sc(NC(=O)NCCC(C)C)nc4N)n3)c(F)cc2F)c1`, for which, under setting [5], the inhibition at 0.05 µM came to 96%. As to `COc1cc(Nc2nc(N)c(-c3nc(-c4cccc(NC(=O)c5cn(Cc6ccccc6)c6ccccc56)c4)cs3)s2)cc(OC)c1OC`, under setting [6], the inhibition at 0.15 µM is -11%. With `CNC(=O)Nc1nc(N)c(-c2nc(-c3cccc(NC(=O)c4ccc(C(C)(C)C)o4)c3)cs2)s1`, under setting [7], the inhibition at 0.001 µM came out at 2%. Moreover, the inhibition at 0.01 µM under setting [8] was found to be 69%. For `COc1cc(Nc2nc(N)c(-c3nc(-c4cccc(NC(=O)CCc5c[nH]c6ccccc56)c4)cs3)s2)cc(OC)c1OC`, the inhibition at 0.15 µM under setting [6] was -4%. In the case of `CCC(CO)NC(=O)Nc1nc(N)c(-c2nc(-c3cc(NC(=O)c4cccc(OC)c4)c(F)cc3F)no2)s1` (centres unmarked), the inhibition at 0.05 µM under setting [5] amounted to 81%.

Source of the values: patent US6620828B2, “Thiazole compounds and pharmaceutical compositions for inhibiting protein kinases and methods for their use” (Agouron Pharmaceuticals, Inc., priority 1999, dated 2003).
